Source: US20260262643A1, “HERBICIDAL BENZOXAZINES” (FMC CORPORATION, priority 2022, published 2026)

Tests used:
kochia [1] = test: Test C postemergence; assay type: in vivo, Bassia scoparia; conditions: 10 days
Procedure, shortened: (§1)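 Soil-applied (pre) and foliar (post, 1–2 leaf, 2–10 cm) sprays; surfactant-containing non-phytotoxic solvent vehicle; loam/sand substrate. Readout: visual % control at 10 d, greenhouse, versus untreated.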

ragweed [2] = test: Test C postemergence; assay type: in vivo, Ambrosia artemisiifolia; conditions: 10 days
Procedure, shortened: as §1

barnyardgrass [3] = test: Test C preemergence; assay type: in vivo, Echinochloa crusgalli; conditions: 0 to 100 scale (0 no effect, 100 complete control); for Plant response rating, Barnyardgrass: Preemergence, 500 g ai/ha, visual rating after 10 days; for Barnyardgrass plant response rating: preemergence, 125 g ai/ha
Procedure, shortened: as §1

oat, wild [4] = test: Test C postemergence; assay type: in vivo, Avena fatua; conditions: 10 days
Procedure, shortened: as §1

blackgrass [5] = test: Test C preemergence; assay type: in vivo, Alopecurus myosuroides; conditions: 0 to 100 scale (0 no effect, 100 complete control); for Plant response rating, Blackgrass: Preemergence, 500 g ai/ha, visual rating after 10 days; for Blackgrass plant response rating: Test C, preemergence, 125 g ai/ha
Procedure, shortened: as §1

ragweed [6] = test: Test C preemergence; assay type: in vivo, Ambrosia artemisiifolia; conditions: 0 to 100 scale (0 no effect, 100 complete control); for Plant response rating, Ragweed: Preemergence, 500 g ai/ha, visual rating after 10 days; for Ragweed plant response rating: Test C, preemergence, 125 g ai/ha
Procedure, shortened: as §1

green foxtail [7] = test: Test C postemergence; assay type: in vivo, Setaria viridis; conditions: 10 days
Procedure, shortened: as §1

pigweed, palmer [8] = test: Test C postemergence; assay type: in vivo, Amaranthus palmeri; conditions: 10 days
Procedure, shortened: as §1

soybean [9] = test: Test C preemergence; assay type: in vivo, Glycine max; conditions: 0 to 100 scale (0 no effect, 100 complete control); for Plant response rating, Soybean: Preemergence, 500 g ai/ha, visual rating after 10 days; for Soybean plant response rating: Test C, preemergence, 125 g ai/ha
Procedure, shortened: as §1

rice = test: Test D flooded paddy test; assay type: in vivo, Oryza sativa; conditions: 250 g ai/ha, applied to paddy water, visual rating after 13 to 14 days, scale 0 to 100 (0 no effect, 100 complete control)
Procedure, shortened: (§2)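 Visual ratings from 0, meaning no effect, to 100, meaning complete control, were assigned against untreated controls 13 to 14 days after compounds were added to the floodwater of pots kept 3 cm deep, with plants at the 2-leaf stage.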

green foxtail [10] = test: Test C preemergence; assay type: in vivo, Setaria viridis; conditions: 0 to 100 scale (0 no effect, 100 complete control); for Plant response rating, Foxtail, Green: Preemergence, 500 g ai/ha, visual rating after 10 days; for Foxtail, Green plant response rating: Test C, preemergence, 125 g ai/ha
Procedure, shortened: as §1

corn [11] = test: Test C postemergence; assay type: in vivo, Zea mays; conditions: 10 days
Procedure, shortened: as §1

ryegrass, Italian [12] = test: Test C preemergence; assay type: in vivo, Lolium multiflorum; conditions: 0 to 100 scale (0 no effect, 100 complete control); for Plant response rating, Ryegrass, Italian: Preemergence, 500 g ai/ha, visual rating after 10 days; for Ryegrass, Italian plant response rating: Test C, preemergence, 125 g ai/ha
Procedure, shortened: as §1

horseweed = test: Test C postemergence; assay type: in vivo, Erigeron canadensis; conditions: 10 days
Procedure, shortened: as §1

kochia [13] = test: Test C preemergence; assay type: in vivo, Bassia scoparia; conditions: 0 to 100 scale (0 no effect, 100 complete control); for Plant response rating, Kochia: Preemergence, 500 g ai/ha, visual rating after 10 days; for Kochia plant response rating: Test C, preemergence, 125 g ai/ha
Procedure, shortened: as §1

ryegrass, Italian [14] = test: Test C postemergence; assay type: in vivo, Lolium multiflorum; conditions: 10 days
Procedure, shortened: as §1

wheat [15] = test: Test C preemergence; assay type: in vivo, Triticum aestivum; conditions: 0 to 100 scale (0 no effect, 100 complete control); for Plant response rating, Wheat: Preemergence, 500 g ai/ha, visual rating after 10 days; for Wheat plant response rating: Test C, preemergence, 125 g ai/ha
Procedure, shortened: as §1

wheat [16] = test: Test C postemergence; assay type: in vivo, Triticum aestivum; conditions: 10 days
Procedure, shortened: as §1

ducksalad = test: Test D flooded paddy test; assay type: in vivo, Heteranthera limosa; conditions: 250 g ai/ha, applied to paddy water, visual rating after 13 to 14 days, scale 0 to 100 (0 no effect, 100 complete control)
Procedure, shortened: as §2

galium = test: Test C postemergence; assay type: in vivo, Galium aparine; conditions: 10 days
Procedure, shortened: as §1

oat, wild [17] = test: Test C preemergence; assay type: in vivo, Avena fatua; conditions: 0 to 100 scale (0 no effect, 100 complete control); for Plant response rating, Oat, Wild: Preemergence, 500 g ai/ha, visual rating after 10 days; for Oat, Wild plant response rating: Test C, preemergence, 125 g ai/ha
Procedure, shortened: as §1

sedge, umbrella = test: Test D flooded paddy test; assay type: in vivo, Cyperus difformis; conditions: 250 g ai/ha, applied to paddy water, visual rating after 13 to 14 days, scale 0 to 100 (0 no effect, 100 complete control)
Procedure, shortened: as §2

corn [18] = test: Test C preemergence; assay type: in vivo, Zea mays; conditions: 0 to 100 scale (0 no effect, 100 complete control); for Plant response rating, Corn: Preemergence, 500 g ai/ha, visual rating after 10 days; for Corn plant response rating: Test C, preemergence, 125 g ai/ha
Procedure, shortened: as §1

barnyardgrass [19] = test: Test C postemergence; assay type: in vivo, Echinochloa crusgalli; conditions: 10 days
Procedure, shortened: as §1

blackgrass [20] = test: Test C postemergence; assay type: in vivo, Alopecurus myosuroides; conditions: 10 days
Procedure, shortened: as §1

soybean [21] = test: Test C postemergence; assay type: in vivo, Glycine max; conditions: 10 days
Procedure, shortened: as §1

barnyardgrass [22] = test: Test D flooded paddy test; assay type: in vivo, Echinochloa crus-galli; conditions: 250 g ai/ha, applied to paddy water, visual rating after 13 to 14 days, scale 0 to 100 (0 no effect, 100 complete control)
Procedure, shortened: as §2

pigweed, palmer [23] = test: Test C preemergence; assay type: in vivo, Amaranthus palmeri; conditions: 0 to 100 scale (0 no effect, 100 complete control); for Plant response rating, Pigweed, Palmer: Preemergence, 500 g ai/ha, visual rating after 10 days
Procedure, shortened: as §1

[24] = 125 g ai/ha, postemergence, 0 to 100 scale, 0 no effect, 100 complete control
[25] = Postemergence, 500 g ai/ha, visual 0 to 100 scale (0 no effect, 100 complete control)

Cc1cccc2c1O[C@H](C)CN2C(=O)c1cccc(-c2ncn(C(C)C)n2)c1 [Compound 221]
Plant response rating, Kochia (kochia [1]; [24]): 0 | Plant response rating, Kochia (kochia [1]; [25]): 0 | Plant response rating, Ragweed (ragweed [2]; [24]): 0 | Plant response rating, Ragweed (ragweed [2]; [25]): 0 | Plant response rating, Barnyardgrass (barnyardgrass [3]): 0 | Barnyardgrass plant response rating (barnyardgrass [3]; Test C): 0 | Plant response rating, Oat, Wild (oat, wild [4]; [24]): 0 | Plant response rating, Oat, Wild (oat, wild [4]; [25]): 0 | Plant response rating, Blackgrass (blackgrass [5]): 0 | Blackgrass plant response rating (blackgrass [5]): 0 | Plant response rating, Ragweed (ragweed [6]): 0 | Ragweed plant response rating (ragweed [6]): 0 | Plant response rating, Foxtail, Green (green foxtail [7]; [24]): 0 | Plant response rating, Foxtail, Green (green foxtail [7]; [25]): 0 | Plant response rating, Pigweed, Palmer (pigweed, palmer [8]; [24]): 0 | Plant response rating, Pigweed, Palmer (pigweed, palmer [8]; [25]): 0 | Plant response rating, Soybean (soybean [9]): 0 | Soybean plant response rating (soybean [9]): 0 | Plant response rating, Rice (Flood) (rice): 0 | Plant response rating, Foxtail, Green (green foxtail [10]): 0 | Foxtail, Green plant response rating (green foxtail [10]): 0 | Plant response rating, Corn (corn [11]; [24]): 0 | Plant response rating, Corn (corn [11]; [25]): 0 | Plant response rating, Ryegrass, Italian (ryegrass, Italian [12]): 0 | Ryegrass, Italian plant response rating (ryegrass, Italian [12]): 0 | Plant response rating, Horseweed (horseweed; [24]): 0 | Plant response rating, Horseweed (horseweed; [25]): 20 | Plant response rating, Kochia (kochia [13]): 0 | Kochia plant response rating (kochia [13]): 0 | Plant response rating, Ryegrass, Italian (ryegrass, Italian [14]; [24]): 0 | Plant response rating, Ryegrass, Italian (ryegrass, Italian [14]; [25]): 0 | Plant response rating, Wheat (wheat [15]): 0 | Wheat plant response rating (wheat [15]): 0 | Plant response rating, Wheat (wheat [16]; [24]): 0 | Plant response rating, Wheat (wheat [16]; [25]): 0 | Plant response rating, Ducksalad (Flood) (ducksalad): 0 | Plant response rating, Galium (galium; [24]): 0 | Plant response rating, Galium (galium; [25]): 0 | Plant response rating, Oat, Wild (oat, wild [17]): 0 | Oat, Wild plant response rating (oat, wild [17]): 0 | Plant response rating, Sedge, Umbrella (Flood) (sedge, umbrella): 0 | Plant response rating, Corn (corn [18]): 0 | Corn plant response rating (corn [18]): 0 | Plant response rating, Barnyardgrass (barnyardgrass [19]; [24]): 0 | Plant response rating, Barnyardgrass (barnyardgrass [19]; [25]): 10 | Plant response rating, Blackgrass (blackgrass [20]; [24]): 0 | Plant response rating, Blackgrass (blackgrass [20]; [25]): 0 | Plant response rating, Soybean (soybean [21]; [24]): 0 | Plant response rating, Soybean (soybean [21]; [25]): 0 | Plant response rating, Barnyardgrass (Flood) (barnyardgrass [22]): 0 | Plant response rating, Pigweed, Palmer (pigweed, palmer [23]): 0

CCn1cnc(-c2cccc(C(=O)N3C[C@H](C)Oc4c(C)cccc43)c2)n1 [Compound 165]
Plant response rating, Kochia (kochia [1]; [24]): 0 | Plant response rating, Kochia (kochia [1]; [25]): 0 | Plant response rating, Ragweed (ragweed [2]; [24]): 0 | Plant response rating, Ragweed (ragweed [2]; [25]): 0 | Barnyardgrass plant response rating (barnyardgrass [3]): 0 | Plant response rating, Barnyardgrass (barnyardgrass [3]): 0 | Plant response rating, Oat, Wild (oat, wild [4]; [24]): 0 | Plant response rating, Oat, Wild (oat, wild [4]; [25]): 0 | Plant response rating, Blackgrass (blackgrass [5]): 0 | Blackgrass plant response rating (blackgrass [5]): 0 | Plant response rating, Ragweed (ragweed [6]): 20 | Ragweed plant response rating (ragweed [6]): 0 | Plant response rating, Foxtail, Green (green foxtail [7]; [24]): 0 | Plant response rating, Foxtail, Green (green foxtail [7]; [25]): 0 | Plant response rating, Pigweed, Palmer (pigweed, palmer [8]; [24]): 0 | Plant response rating, Pigweed, Palmer (pigweed, palmer [8]; [25]): 10 | Plant response rating, Soybean (soybean [9]): 0 | Soybean plant response rating (soybean [9]): 0 | Plant response rating, Rice (Flood) (rice): 0 | Plant response rating, Foxtail, Green (green foxtail [10]): 0 | Foxtail, Green plant response rating (green foxtail [10]): 0 | Plant response rating, Corn (corn [11]; [24]): 0 | Plant response rating, Corn (corn [11]; [25]): 0 | Plant response rating, Ryegrass, Italian (ryegrass, Italian [12]): 0 | Ryegrass, Italian plant response rating (ryegrass, Italian [12]): 0 | Plant response rating, Horseweed (horseweed; [24]): 0 | Plant response rating, Horseweed (horseweed; [25]): 60 | Plant response rating, Kochia (kochia [13]): 0 | Kochia plant response rating (kochia [13]): 0 | Plant response rating, Ryegrass, Italian (ryegrass, Italian [14]; [24]): 0 | Plant response rating, Ryegrass, Italian (ryegrass, Italian [14]; [25]): 0 | Plant response rating, Wheat (wheat [15]): 0 | Wheat plant response rating (wheat [15]): 0 | Plant response rating, Wheat (wheat [16]; [24]): 0 | Plant response rating, Wheat (wheat [16]; [25]): 0 | Plant response rating, Ducksalad (Flood) (ducksalad): 0 | Plant response rating, Galium (galium; [24]): 0 | Plant response rating, Galium (galium; [25]): 0 | Plant response rating, Oat, Wild (oat, wild [17]): 0 | Oat, Wild plant response rating (oat, wild [17]): 0 | Plant response rating, Sedge, Umbrella (Flood) (sedge, umbrella): 0 | Plant response rating, Corn (corn [18]): 0 | Corn plant response rating (corn [18]): 0 | Plant response rating, Barnyardgrass (barnyardgrass [19]; [24]): 0 | Plant response rating, Barnyardgrass (barnyardgrass [19]; [25]): 10 | Plant response rating, Blackgrass (blackgrass [20]; [24]): 0 | Plant response rating, Blackgrass (blackgrass [20]; [25]): 10 | Plant response rating, Soybean (soybean [21]; [24]): 30 | Plant response rating, Soybean (soybean [21]; [25]): 30 | Plant response rating, Barnyardgrass (Flood) (barnyardgrass [22]): 0 | Plant response rating, Pigweed, Palmer (pigweed, palmer [23]): 0 | Pigweed, Palmer plant response rating (pigweed, palmer [23]; Test C, preemergence, 125 g ai/ha): 0
